Literature values in US20100135983A1, “Anti-inflammatory compositions and methods” (Searete LLC, a limited liability corporation of the State …, priority 2008, published 2010).
Blank lines part the entries; values can stand above or below the compound they belong to.

Legend:
[1] = tested on: Src family kinase; details: also its dependent cellular responses
[2] = tested on: lethal septic shock; details: mice
[3] = single agent, infused at 400 mg over one hour
[4] = tested on: Epha1; details: at nanomolar concentrations
[5] = tested on: Src family kinases (Src, Lck, Yes, Fyn); details: at nanomolar concentrations
[6] = tested on: proteasome; details: cultured breast cancer cells; disulfiram bound to copper

- inhibition of CpG-induced Src family kinase activation [1]: does not inhibit
Structure (SMILES): CCN(CC)CCCC(C)Nc1ccnc2cc(Cl)ccc12 (stereo not drawn) [Chloroquine]

Structure (SMILES): Cl.Cl.Nc1ccccc1Oc1ccc2c(N)nsc2c1 [Example M62812, 3-amino-6-(2-aminophenoxy)-1,2-benzisothiazole dihydrochloride]
- prevention of lethal septic shock [2]: prevents lethal septic shock

Structure (SMILES): CCN(CC)CCCC(C)Nc1ccnc2cc(Cl)ccc12.O=P(O)(O)O.O=P(O)(O)O (stereo not drawn) [chloroquine phosphate, 7-chloro-4-[[4-(diethylamino)-1-methylbutyl]amino]quinoline phosphate (1:2)]
- tolerability of intravenous infusion [3]: without complication

Structure (SMILES): Cc1nc(Nc2ncc(C(=O)Nc3c(C)cccc3Cl)s2)cc(N2CCN(CCO)CC2)n1.O [dasatinib, N-(2-chloro-6-methylphenyl)-2-[[6-[4-(2-hydroxyethyl)-1-piperazinyl]-2-methyl-4-pyrimidinyl]amino]-5-thiazolecarboxamide, monohydrate]
- inhibition of Epha1 [4]: inhibits
- inhibition of Src family kinases (Src, Lck, Yes, Fyn) [5]: inhibits

Structure (SMILES): CCN(CC)C(=S)SSC(=S)N(CC)CC [disulfiram, 1-(diethylthiocarbamoyldisulfanyl)-N,N-diethyl-methanethioamide]
- proteasomal activity [6]: inhibits proteasomal activity
